pIC50: −log10 of the molar value. Where two headings read alike, the source gives them in different places. Each block holds one compound with its values, some of them ahead of it.
Assays:
[1] = Pharmacokinetic evaluation in rats, intravenous and oral administration; assay type: in vivo, SD rats; settings: for time to peak concentration / AUC(0-t) / bioavailability / Cmax: male SD rats, intragastric, 5 mg/kg, single; for AUC(0-t) / bioavailability / Cmax: rat, plasma, po; for Cmax: read-out: peak concentration (Cmax)
Experimental: Experimental objective: evaluation of the oral absorption in animals of the product of Embodiment 1 by intravenous and oral administration in rats
Experimental materials: male, SD rats, EDTA-K2
0.5 mg/mL of the test compound suspended in 0.5% Methocel/0.2% Tween 80 was administered intragastrically to male SD rats (overnight fasting, 7-11 week-age) at a dose of 5 mg/kg. About 30 μL blood was collected from the jugular or caudal vein of each animal in the two groups at 0.25, 0.5, 1.0, 2.0, 4.0, 8.0, and 24 hours after administration, added into anticoagulated tubes containing EDTA-K2, and the mixture was centrifuged to obtain the plasma. LC-MS/MS method was used to determine the drug concentration in blood, and WinNonlin™ Version 6.3 (Pharsight, Mountain View, Calif.) pharmacokinetic software was used to calculate the relevant pharmacokinetic parameters by non-compartment model logarithmic trapezoidal method.

[2] = as above; assay type: in vivo, SD rats; settings: for Vd / AUC(0-t) / half-life / clearance: rat, plasma, male SD rats, intravenous injection, 1.0 mg/kg, single; for Vd: read-out: apparent volume of distribution at steady state (Vdss); for AUC(0-t): read-out: area under the plasma concentration-time curve (AUC0-last); for half-life: read-out: elimination half-life (T1/2) (converted); for clearance: read-out: plasma clearance (CL)
[3] = biological target: c-Met (Homo sapiens, UniProt P08581); experiment: In vitro kinase activity test, c-Met
Experimental: (§1) Protein kinase with a corresponding enzyme concentration of X (shown in table 1), peptide substrate with a concentration of Y, ATP with a specific concentration, 8 mM MOPS (pH 7.0), and 10 mM MgCl2 were added. The detection plate was P30 filtermat, and the reaction was performed at room temperature for T minutes, and the reaction system was 10 μL.
(§2) The reaction was terminated by adding 0.5% phosphoric acid to the kinase reaction solution, and the plate was read by an Envision instrument.
(§3) The data were converted into phosphorylation rate and inhibition rate, and subjected to parameter curve-fitting (GraphPad Software) to obtain IC50 data of the compounds.

[4] = biological target: Lck(h) (Homo sapiens, UniProt P06239); experiment: In vitro kinase activity test, Lck(h)
Experimental: as §1, §2, §3

[5] = biological target: TNIK(h) (Homo sapiens, UniProt Q9UKE5); experiment: In vitro kinase activity test, TNIK(h)
Experimental: as §1, §2, §3

[6] = biological target: Flt1(h) (Homo sapiens, UniProt P17948); experiment: In vitro kinase activity test, Flt1(h)
Experimental: as §1, §2, §3

[7] = biological target: Flt4(h) (Homo sapiens, UniProt P35916); experiment: In vitro kinase activity test, Flt4(h)
Experimental: as §1, §2, §3

[8] = biological target: MINK(h) (Homo sapiens, UniProt Q8N4C8); experiment: In vitro kinase activity test, MINK(h)
Chain of MINK(h) (Q8N4C8 whole entry): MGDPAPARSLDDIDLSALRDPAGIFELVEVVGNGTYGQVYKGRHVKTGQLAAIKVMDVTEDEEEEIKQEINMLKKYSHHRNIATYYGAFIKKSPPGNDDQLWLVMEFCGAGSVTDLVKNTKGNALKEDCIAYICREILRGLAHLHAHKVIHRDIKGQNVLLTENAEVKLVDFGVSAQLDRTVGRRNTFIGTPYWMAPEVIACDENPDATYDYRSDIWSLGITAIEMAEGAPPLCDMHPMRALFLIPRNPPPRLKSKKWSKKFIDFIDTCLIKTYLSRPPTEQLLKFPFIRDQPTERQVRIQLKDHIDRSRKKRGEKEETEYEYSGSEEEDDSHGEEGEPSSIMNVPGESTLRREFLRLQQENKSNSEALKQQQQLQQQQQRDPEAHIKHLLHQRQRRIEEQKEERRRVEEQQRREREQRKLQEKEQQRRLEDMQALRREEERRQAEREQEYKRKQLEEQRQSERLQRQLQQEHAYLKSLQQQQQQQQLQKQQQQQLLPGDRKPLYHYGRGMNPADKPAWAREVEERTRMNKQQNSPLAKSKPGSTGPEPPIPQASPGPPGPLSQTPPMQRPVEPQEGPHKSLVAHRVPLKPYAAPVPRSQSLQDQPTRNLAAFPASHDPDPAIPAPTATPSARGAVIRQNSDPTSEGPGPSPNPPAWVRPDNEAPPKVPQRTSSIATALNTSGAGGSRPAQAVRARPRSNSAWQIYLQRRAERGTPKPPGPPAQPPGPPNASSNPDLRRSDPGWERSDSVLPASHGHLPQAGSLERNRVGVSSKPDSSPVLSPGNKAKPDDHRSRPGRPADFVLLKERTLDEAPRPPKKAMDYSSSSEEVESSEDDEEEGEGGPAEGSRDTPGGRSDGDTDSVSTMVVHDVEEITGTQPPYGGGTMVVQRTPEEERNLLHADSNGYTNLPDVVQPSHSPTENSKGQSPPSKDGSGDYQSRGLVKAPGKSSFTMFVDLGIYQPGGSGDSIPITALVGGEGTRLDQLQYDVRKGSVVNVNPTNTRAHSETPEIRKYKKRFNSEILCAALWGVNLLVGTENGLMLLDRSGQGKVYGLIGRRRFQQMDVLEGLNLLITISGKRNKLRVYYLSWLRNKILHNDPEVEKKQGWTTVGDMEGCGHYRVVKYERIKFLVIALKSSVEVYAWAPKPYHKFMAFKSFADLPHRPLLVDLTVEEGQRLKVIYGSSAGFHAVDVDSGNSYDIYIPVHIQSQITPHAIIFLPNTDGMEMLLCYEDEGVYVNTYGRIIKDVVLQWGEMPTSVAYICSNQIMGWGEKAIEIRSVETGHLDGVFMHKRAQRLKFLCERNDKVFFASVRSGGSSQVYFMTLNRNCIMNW
Experimental: as §1, §2, §3

[9] = biological target: cKit(h) (Homo sapiens, UniProt P10721); experiment: In vitro kinase activity test, cKit(h)
Experimental: as §1, §2, §3

[10] = biological target: FGFR1(h) (Homo sapiens, UniProt P11362); experiment: In vitro kinase activity test, FGFR1(h)
Chain of FGFR1(h) (P11362 22-822): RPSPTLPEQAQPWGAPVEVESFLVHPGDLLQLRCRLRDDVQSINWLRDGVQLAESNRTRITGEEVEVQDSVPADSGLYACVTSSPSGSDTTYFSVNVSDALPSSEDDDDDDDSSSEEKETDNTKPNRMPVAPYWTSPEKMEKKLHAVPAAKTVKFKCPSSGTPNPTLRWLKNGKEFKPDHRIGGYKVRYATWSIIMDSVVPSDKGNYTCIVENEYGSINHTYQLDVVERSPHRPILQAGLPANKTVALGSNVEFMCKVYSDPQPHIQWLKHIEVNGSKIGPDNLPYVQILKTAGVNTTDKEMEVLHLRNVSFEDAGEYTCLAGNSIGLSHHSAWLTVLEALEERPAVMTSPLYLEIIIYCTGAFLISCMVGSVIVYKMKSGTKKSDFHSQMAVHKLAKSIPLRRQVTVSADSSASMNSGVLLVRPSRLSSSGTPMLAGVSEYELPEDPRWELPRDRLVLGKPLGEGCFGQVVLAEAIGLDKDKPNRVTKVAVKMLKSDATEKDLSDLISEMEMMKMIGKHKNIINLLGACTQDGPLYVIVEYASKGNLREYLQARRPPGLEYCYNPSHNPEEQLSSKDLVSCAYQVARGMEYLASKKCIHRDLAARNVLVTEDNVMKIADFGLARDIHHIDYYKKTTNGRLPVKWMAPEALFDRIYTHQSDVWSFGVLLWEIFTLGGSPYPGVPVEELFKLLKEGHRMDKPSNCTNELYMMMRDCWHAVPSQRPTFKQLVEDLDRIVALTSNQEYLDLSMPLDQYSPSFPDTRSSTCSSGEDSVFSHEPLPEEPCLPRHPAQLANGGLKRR
Experimental: as §1, §2, §3

[11] = biological target: FGFR2(h) (Homo sapiens, UniProt P21802); experiment: In vitro kinase activity test, FGFR2(h)
Chain of FGFR2(h) (P21802 22-821): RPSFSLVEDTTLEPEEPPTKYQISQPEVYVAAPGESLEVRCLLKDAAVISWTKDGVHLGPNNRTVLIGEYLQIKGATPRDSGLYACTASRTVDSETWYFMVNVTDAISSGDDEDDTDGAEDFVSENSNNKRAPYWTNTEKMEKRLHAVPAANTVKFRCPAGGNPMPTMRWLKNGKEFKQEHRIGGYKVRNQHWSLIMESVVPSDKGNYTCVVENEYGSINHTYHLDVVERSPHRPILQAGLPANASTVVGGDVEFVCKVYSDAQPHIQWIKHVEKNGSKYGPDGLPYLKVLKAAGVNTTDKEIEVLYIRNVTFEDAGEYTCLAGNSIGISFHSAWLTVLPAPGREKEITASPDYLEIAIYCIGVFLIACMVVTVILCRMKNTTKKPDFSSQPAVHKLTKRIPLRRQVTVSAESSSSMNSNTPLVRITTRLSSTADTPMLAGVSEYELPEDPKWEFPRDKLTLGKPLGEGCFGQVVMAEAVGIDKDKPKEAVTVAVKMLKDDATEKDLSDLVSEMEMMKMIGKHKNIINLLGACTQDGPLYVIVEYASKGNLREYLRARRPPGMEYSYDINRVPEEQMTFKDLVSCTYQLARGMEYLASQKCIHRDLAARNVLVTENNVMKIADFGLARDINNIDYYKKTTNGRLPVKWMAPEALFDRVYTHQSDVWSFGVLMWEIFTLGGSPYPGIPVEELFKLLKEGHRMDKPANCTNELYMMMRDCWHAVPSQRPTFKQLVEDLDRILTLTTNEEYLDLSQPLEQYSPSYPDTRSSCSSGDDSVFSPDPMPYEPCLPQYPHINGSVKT
Experimental: as §1, §2, §3

[12] = biological target: FGFR3(h) (Homo sapiens, UniProt P22607); experiment: In vitro kinase activity test, FGFR3(h)
Chain of FGFR3(h) (P22607 23-806): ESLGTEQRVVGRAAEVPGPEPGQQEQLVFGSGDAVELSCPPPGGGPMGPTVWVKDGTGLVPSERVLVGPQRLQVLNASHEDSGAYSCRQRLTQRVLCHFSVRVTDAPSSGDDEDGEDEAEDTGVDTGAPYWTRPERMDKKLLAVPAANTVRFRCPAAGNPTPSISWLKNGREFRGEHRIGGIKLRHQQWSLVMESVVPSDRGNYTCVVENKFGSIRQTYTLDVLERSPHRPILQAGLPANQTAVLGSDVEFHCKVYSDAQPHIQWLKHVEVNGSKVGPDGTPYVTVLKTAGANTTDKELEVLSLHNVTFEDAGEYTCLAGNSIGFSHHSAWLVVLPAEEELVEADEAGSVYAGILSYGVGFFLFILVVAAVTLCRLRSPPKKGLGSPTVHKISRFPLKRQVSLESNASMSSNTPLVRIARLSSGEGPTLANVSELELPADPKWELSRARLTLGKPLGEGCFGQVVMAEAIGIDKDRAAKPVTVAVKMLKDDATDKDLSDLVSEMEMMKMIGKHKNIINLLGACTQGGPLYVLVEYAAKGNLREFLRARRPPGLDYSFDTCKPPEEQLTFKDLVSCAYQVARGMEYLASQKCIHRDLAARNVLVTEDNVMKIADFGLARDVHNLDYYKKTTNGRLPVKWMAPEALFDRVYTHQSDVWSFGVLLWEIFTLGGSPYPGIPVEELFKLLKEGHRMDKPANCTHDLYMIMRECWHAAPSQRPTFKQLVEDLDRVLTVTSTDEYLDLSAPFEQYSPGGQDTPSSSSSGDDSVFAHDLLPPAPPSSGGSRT
Experimental: as §1, §2, §3

[13] = biological target: FGFR4(h) (Homo sapiens, UniProt P22455); experiment: In vitro kinase activity test, FGFR4(h)
Experimental: as §1, §2, §3

[14] = biological target: PDGFRβ(h) (Homo sapiens, UniProt P09619); experiment: In vitro kinase activity test, PDGFRβ(h)
Chain of PDGFRβ(h) (P09619 33-1106): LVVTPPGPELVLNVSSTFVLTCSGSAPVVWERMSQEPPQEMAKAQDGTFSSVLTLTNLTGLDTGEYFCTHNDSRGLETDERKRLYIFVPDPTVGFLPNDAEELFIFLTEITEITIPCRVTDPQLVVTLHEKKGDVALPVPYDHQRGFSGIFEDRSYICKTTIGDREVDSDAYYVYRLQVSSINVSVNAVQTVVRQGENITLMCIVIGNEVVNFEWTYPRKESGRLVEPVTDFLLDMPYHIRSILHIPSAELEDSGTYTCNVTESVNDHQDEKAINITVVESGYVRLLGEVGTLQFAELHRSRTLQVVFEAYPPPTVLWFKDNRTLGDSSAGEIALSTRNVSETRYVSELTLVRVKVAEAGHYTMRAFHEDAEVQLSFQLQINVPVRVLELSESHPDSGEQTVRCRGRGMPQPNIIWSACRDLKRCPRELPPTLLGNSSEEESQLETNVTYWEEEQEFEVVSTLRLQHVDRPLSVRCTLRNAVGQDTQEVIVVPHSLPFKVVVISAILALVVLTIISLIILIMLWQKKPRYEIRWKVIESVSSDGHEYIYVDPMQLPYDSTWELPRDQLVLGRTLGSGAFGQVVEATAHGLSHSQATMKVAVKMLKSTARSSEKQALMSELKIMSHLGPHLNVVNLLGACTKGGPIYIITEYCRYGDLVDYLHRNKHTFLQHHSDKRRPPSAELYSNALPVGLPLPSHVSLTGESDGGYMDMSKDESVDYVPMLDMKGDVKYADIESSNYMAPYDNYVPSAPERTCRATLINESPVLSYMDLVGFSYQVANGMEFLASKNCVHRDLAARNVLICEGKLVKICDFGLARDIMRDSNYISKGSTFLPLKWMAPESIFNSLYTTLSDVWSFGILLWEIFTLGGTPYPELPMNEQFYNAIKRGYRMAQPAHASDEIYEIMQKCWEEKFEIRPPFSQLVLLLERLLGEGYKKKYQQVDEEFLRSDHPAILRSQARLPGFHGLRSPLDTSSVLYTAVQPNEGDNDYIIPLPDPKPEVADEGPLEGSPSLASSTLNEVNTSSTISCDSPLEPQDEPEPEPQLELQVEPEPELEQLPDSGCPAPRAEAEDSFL
Experimental: as §1, §2, §3

[15] = biological target: cKit(V560G)(h) (Homo sapiens, UniProt P10721, V560G); experiment: In vitro kinase activity test, cKit(V560G)(h)
Experimental: as §1, §2, §3

[16] = biological target: KDR(h) (Homo sapiens, UniProt P35968); experiment: In vitro kinase activity test, KDR(h)
Experimental: as §1, §2, §3

[17] = biological target: T1, Aurora-A(h) (Homo sapiens, UniProt O14965); experiment: In vitro kinase activity test, Aurora-A(h)
T1 sequence (O14965 1-403): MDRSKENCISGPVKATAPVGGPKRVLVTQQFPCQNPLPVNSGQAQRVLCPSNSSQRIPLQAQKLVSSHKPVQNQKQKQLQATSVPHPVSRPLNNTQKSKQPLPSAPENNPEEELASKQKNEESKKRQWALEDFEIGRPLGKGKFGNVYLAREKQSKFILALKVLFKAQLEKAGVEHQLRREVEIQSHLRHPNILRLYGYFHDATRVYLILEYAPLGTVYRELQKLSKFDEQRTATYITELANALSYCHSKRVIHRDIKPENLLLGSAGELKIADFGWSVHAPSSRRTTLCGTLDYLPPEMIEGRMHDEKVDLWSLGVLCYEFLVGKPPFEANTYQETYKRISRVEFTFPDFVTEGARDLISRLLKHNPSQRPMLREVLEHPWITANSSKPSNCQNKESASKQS
Experimental: as §1, §2, §3

[18] = biological target: Abl(h) (Homo sapiens, UniProt P00519); experiment: In vitro kinase activity test, Abl(h)
Experimental: as §1, §2, §3

[19] = biological target: PDGFRα(h) (Homo sapiens, UniProt P16234); experiment: In vitro kinase activity test, PDGFRα(h)
Experimental: as §1, §2, §3

[20] = Pharmacokinetic evaluation in mice, intravenous and oral administration; assay type: in vivo; settings: male Balb/c nude mice, single
Experimental: Experimental objective: evaluation of the oral absorption in animals of the product of Embodiment 1 by intravenous and oral administration in mice
Experimental materials: Balb/c nude mice, EDTA-K2
Experimental procedure: 0.5 mg/mL 5% DMSO/95% (10% HP-β-CD) clear solution of the product of Embodiment 1 was injected intravenously into male Balb/c nude mice (overnight fasting, 7-9 week-age) via caudal vein at a dose of 1 mg/kg. 0.5 mg/mL test compound suspended in 0.5% Methocel/0.2% Tween 80 was administered intragastrically to male Balb/c nude mice (overnight fasting, 7-9 week-age) at a dose of 5 mg/kg. About 30 μL blood was collected from the jugular or caudal vein of each animal in the two groups at 0.25, 0.5, 1.0, 2.0, 4.0, 8.0 and 24 hours after administration, added into anticoagulated tubes containing EDTA-K2, and the mixture was centrifuged to obtain the plasma. LC-MS/MS method was used to determine the drug concentration in blood, and WinNonlin™ Version 6.3 (Pharsight, Mountain View, Calif.) pharmacokinetic software was used to calculate the relevant pharmacokinetic parameters by non-compartment model logarithmic trapezoidal method.

[21] = c-Met kinase activity IC50, Table 3, value 45.6 is from the second test (Note 1)
[22] = rats, intravenous administration

Compound: COc1cc2nccc(Oc3ccc(NC(=O)NC4CC4)c(Cl)c3)c2cc1C(N)=O [Comparative Compound 1, Lovatinib]
- time to peak concentration [1]: 1.25 h
- AUC(0-t) [1]: 44.5 µM·h
- bioavailability [1]: 58.7%
- Cmax [1]: 10.1 µM
- Vd [2]: 0.407 L/kg
- AUC(0-t) [2]: 15.1 µM·h
- half-life [2]: 2.53 h
- clearance [2]: 2.6 mL/min/kg
- pIC50 ([3]; c-Met IC50, Table 2, ATP 10 μM): 6.22
- pIC50 [4]: 7.16
- pIC50 [5]: 7.04
- pIC50 [6]: 7.89
- pIC50 [7]: 8.52
- pIC50 [8]: 6.44
- pIC50 [9]: 7.11
- pIC50 [10]: 7.12
- pIC50 [11]: 7.85
- pIC50 [12]: 6.88
- pIC50 [13]: 5.95
- pIC50 [14]: 6.56
- pIC50 [15]: 6.22

Compound: COc1cc2nccc(Oc3ccc(NC(=S)NC4CC4)c(Cl)c3F)c2cc1C(N)=O [Comparative Compound 2]
- pIC50 ([16]; read-out: KDR(h) IC50, Table 2, ATP 10 μM): 8.15
- pIC50 ([4]; read-out: Lck(h) IC50, Table 2, ATP 10 μM): 6.60
- pIC50 ([5]; read-out: TNIK(h) IC50, Table 2, ATP 10 μM): 6.93
- pIC50 ([6]; read-out: Flt1(h) IC50, Table 2, ATP 10 μM): 7.51
- pIC50 [7]: 8.10
- pIC50 ([8]; read-out: MINK(h) IC50, Table 2, ATP 10 μM): 7.26
- pIC50 ([10]; read-out: FGFR1(h) IC50, Table 2, ATP 5 μM): 7.16
- pIC50 [11]: 7.82
- pIC50 ([14]; read-out: PDGFRβ(h) IC50, Table 2, ATP 10 μM): 7.51
- pIC50 ([17]; read-out: Aurora-A(h) IC50, Table 2, ATP 10 μM): 6.58

Compound: COc1cc2nccc(Oc3cc(F)c(NC(=O)NC4CC4)cc3F)c2cc1C(N)=O [Comparative Compound 3]
- pIC50 [3, 21]: < 5.00
- pIC50 [18]: 6.09
- pIC50 [10]: 6.80
- pIC50 [13]: 6.29

Compound: COc1cc2nccc(Oc3ccc(NC(=O)NC4CC4)c(F)c3F)c2cc1C(N)=O [Comparative Compound 4]
- pIC50 [3, 21]: 7.10
- pIC50 [18]: 6.53
- pIC50 [10]: 7.51
- pIC50 [13]: 6.97

Compound: COc1cc2nccc(Oc3cc(Cl)c(NC(=O)NC4CC4)cc3F)c2cc1C(N)=O [Comparative Compound 5]
- pIC50 [3, 21]: 7.49
- pIC50 [18]: 6.68
- pIC50 [10]: 7.05
- pIC50 [13]: 6.86

The remaining lines, values ahead:

- pIC50 [3, 21]: 6.55
- pIC50 [18]: 5.66
- pIC50 [10]: 5.76
- pIC50 [13]: 5.34
Compound: COc1cc2nccc(Oc3ccc(NC(=O)NC4CC4)c(F)c3)c2cc1C(N)=O [Comparative Compound 6]

- pIC50 [3, 21]: < 5.00
- pIC50 [10]: 7.27
- pIC50 [13]: 5.95
Compound: COc1cc2nccc(Oc3cc(F)c(NC(=O)NC4CC4)c(Cl)c3)c2cc1C(N)=O [Comparative Compound 7]

- pIC50 ([3]; c-Met IC50, Table 2, ATP 10 μM): 7.00
- pIC50 [3, 21]: 7.34
- activity on c-Met increased, compared with Comparative Compound 1 ([3]; from Table 2): 5 times
- pIC50 [18]: 8.15
- activity on ABL improved, compared with Comparative Compound 2 ([18]; from Table 2): ~70 times
- activity on ABL increased, compared with Comparative Compound 1 ([18]; from Table 2): 5 times
- pIC50 [16]: 8.05
- pIC50 [4]: 7.37
- pIC50 [5]: 7.85
- activity on TNIK improved, compared with Comparative Compound 2 ([5]; from Table 2): 8 times
- activity on TNIK increased, compared with Comparative Compound 1 ([5]; from Table 2): 6.5 times
- pIC50 [6]: 8.00
- pIC50 [7]: 8.52
- pIC50 [8]: 7.32
- pIC50 [9]: 7.17
- pIC50 [10]: 8.05
- activity on FGFR1 increased, compared with Comparative Compound 1 ([10]; from Table 2): 8 times
- pIC50 [11]: 8.22
- activity on FGFR2 increased, compared with Comparative Compound 1 ([11]; from Table 2): 2 times
- pIC50 [12]: 7.59
- activity on FGFR3 increased, compared with Comparative Compound 1 ([12]; from Table 2): 5 times
- pIC50 [13]: 7.04
- activity on FGFR4 increased, compared with Comparative Compound 1 ([13]; from Table 2): 12 times
- pIC50 [19]: 6.92
- pIC50 [14]: 6.65
- pIC50 [17]: 5.68
- pIC50 [15]: 6.58
Compound: COc1cc2nccc(Oc3ccc(NC(=O)NC4CC4)c(Cl)c3F)c2cc1C(N)=O [Embodiment 1B]

- time to peak concentration ([20]; intragastric, 5 mg/kg): 0.5 h
- bioavailability ([20]; mouse, plasma, po, intragastric, 5 mg/kg): 144%
- AUC(0-t) ([20]; mouse, plasma, po, intragastric, 5 mg/kg, read-out: AUC0-last): 24.9 µM·h
- Cmax ([20]; mouse, plasma, po, intragastric, 5 mg/kg, read-out: peak concentration (Cmax)): 9.83 µM
- Vd ([20]; mouse, plasma, intravenous injection, 1.0 mg/kg, read-out: apparent volume of distribution at steady state (Vdss)): 1.48 L/kg
- AUC(0-t) ([20]; mouse, plasma, intravenous injection, 1.0 mg/kg, read-out: area under the plasma concentration-time curve (AUC0-last)): 3.21 µM·h
- half-life ([20]; mouse, plasma, intravenous injection, 1.0 mg/kg, read-out: elimination half-life (T1/2) (converted)): 2.68 h
- clearance ([20]; mouse, plasma, intravenous injection, 1.0 mg/kg, read-out: plasma clearance (CL)): 11 mL/min/kg
- time to peak concentration [1]: 0.375 h
- AUC(0-t) [1]: 71.1 µM·h
- bioavailability [1]: 60.8%
- Cmax [1]: 19.6 µM
- AUC0-last increased, compared with Comparative Compound 1 ([1]; rats, oral absorption): 27%
- Vd [2]: 0.259 L/kg
- AUC(0-t) [2]: 23.4 µM·h
- half-life [2]: 2.64 h
- clearance [2]: 1.6 mL/min/kg
- AUC0-last increased, compared with Comparative Compound 1 [2, 22]: 55%
- plasma clearance reduced, compared with Comparative Compound 1 [2, 22]: ~38%
Compound: COc1cc2nccc(Oc3ccc(NC(=O)NC4CC4)c(Cl)c3F)c2cc1C(N)=O [Embodiment 1]
